In patent publication US8901118B2, “Compounds and methods for kinase modulation, and indications therefor” (Plexxikon Inc., priority 2010, dated 2014):

Experiments:
BCR-KIT BaF3 cells = molecular target: T1, BCR-KIT BaF3 cells (Homo sapiens, UniProt P10721); assay: BaF3 BCR-KIT cell proliferation assay (ATPlite); type: cell-based; conditions: read-out: Inhibition of Cell Proliferation IC50, BCR/BaF3 Kit
T1 construct: fused on or other part: P11274 (Breakpoint cluster region protein)
Summary of the method: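 BaF3 lines were seeded at 10,000 cells/well in growth medium with 1 mg/mL G418 but no IL-3, and MV-4-11 cells at 25,000 cells/well; plates were left overnight at 37 °C. Compounds were added as an 8-point 1:3 series with a top concentration of 10 μM and incubated 3 days. IC50 was taken from ATPlite luminescence.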

CYP1A2 = molecular target: T2, CYP1A2 (Homo sapiens, UniProt P05177); assay: CYP1A2 inhibition (fluorescent substrate CEC); type: in vitro ADME; conditions: read-out: Cyp IC50 1A2
T2 sequence (P05177 1-516): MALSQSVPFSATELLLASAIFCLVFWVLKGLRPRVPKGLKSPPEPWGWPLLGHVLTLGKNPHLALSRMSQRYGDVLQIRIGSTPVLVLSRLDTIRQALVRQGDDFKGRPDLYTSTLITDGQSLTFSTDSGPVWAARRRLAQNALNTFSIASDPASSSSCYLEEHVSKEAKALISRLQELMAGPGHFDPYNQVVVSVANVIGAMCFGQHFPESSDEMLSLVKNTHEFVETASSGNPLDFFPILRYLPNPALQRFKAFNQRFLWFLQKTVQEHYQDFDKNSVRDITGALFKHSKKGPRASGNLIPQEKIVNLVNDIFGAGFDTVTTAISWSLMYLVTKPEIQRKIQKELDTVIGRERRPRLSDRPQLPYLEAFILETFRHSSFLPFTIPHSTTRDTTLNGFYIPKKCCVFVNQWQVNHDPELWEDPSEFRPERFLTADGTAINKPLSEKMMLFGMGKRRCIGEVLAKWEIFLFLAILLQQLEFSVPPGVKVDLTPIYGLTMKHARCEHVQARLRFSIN
Summary of the method: (§1)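 Compounds, serially diluted 1:1 over 10 points in NADPH-regenerating cofactor mix with 5% acetonitrile, were preincubated 10 min at 37 °C, then run with enzyme and substrate at 37 °C (CYP1A2 15 min; CYP2C9 45 min; CYP2C19, CYP2D6 30 min). Product fluorescence gave IC50s.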

CYP2C19 = CYP2C19 (Homo sapiens, UniProt P33261); assay: CYP2C19 inhibition (fluorescent substrate CEC); type: in vitro ADME; conditions: read-out: Cyp IC50 2C19
CYP2C19, sequence (P33261 whole entry): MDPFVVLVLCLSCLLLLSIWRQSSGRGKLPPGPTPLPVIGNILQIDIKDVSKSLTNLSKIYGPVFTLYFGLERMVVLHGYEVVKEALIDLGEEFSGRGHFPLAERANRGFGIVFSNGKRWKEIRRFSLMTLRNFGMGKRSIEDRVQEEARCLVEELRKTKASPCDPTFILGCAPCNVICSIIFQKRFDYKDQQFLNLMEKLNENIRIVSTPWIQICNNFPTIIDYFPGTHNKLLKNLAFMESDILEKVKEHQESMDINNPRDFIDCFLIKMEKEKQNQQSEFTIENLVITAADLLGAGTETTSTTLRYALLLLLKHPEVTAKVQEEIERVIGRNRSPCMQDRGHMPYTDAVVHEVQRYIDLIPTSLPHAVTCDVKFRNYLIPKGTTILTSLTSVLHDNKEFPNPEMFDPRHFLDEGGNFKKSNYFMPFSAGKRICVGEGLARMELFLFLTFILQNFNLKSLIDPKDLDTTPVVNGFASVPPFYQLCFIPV
Summary of the method: as §1

T1 sequence (P10721 589-937): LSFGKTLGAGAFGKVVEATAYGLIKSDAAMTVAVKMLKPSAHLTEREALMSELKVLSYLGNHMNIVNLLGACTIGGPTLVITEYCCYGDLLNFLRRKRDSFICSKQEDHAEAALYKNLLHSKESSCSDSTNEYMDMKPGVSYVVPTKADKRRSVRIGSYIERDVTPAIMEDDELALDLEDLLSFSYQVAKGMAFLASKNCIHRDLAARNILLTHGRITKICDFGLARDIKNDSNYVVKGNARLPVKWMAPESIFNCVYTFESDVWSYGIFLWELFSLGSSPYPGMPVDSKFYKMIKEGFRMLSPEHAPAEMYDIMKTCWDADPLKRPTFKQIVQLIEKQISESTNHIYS

Structure (SMILES)	IC50 (BCR-KIT BaF3 cells)	IC50 (CYP1A2)	IC50 (CYP2C19)
CCc1ccc(Nc2ccc(Cc3c[nH]c4ncc(C)cc34)c(F)n2)cn1 [Compound P-3048, (6-Ethyl-pyridin-3-yl)-[6-fluoro-5-(5-methyl-1H-pyrrolo[2,3-b]pyridin-3-ylmethyl)-pyridin-2-yl]-amine]	< 0.1 µM	> 10 µM	< 5 µM
CCOc1ccc(Nc2ccc(Cc3c[nH]c4ncnc(C)c34)c(F)n2)cn1 [Compound P-4006, (6-Ethoxy-pyridin-3-yl)-[6-fluoro-5-(4-methyl-7H-pyrrolo[2,3-d]pyrimidin-5-ylmethyl)-pyridin-2-yl]-amine]	< 0.1 µM	> 10 µM	> 10 µM
COCCOc1ncnc2[nH]cc(Cc3ccc(Nc4ccc(OC)nc4)nc3F)c12 [Compound P-4019, {6-Fluoro-5-[4-(2-methoxy-ethoxy)-7H-pyrrolo[2,3-d]pyrimidin-5-ylmethyl]-pyridin-2-yl}-(6-methoxy-pyridin-3-yl)-amine]	< 1 µM	> 10 µM	5 to 10 µM
Cc1cnc2[nH]cc(C(=O)c3ccc(Nc4ccc(C)nc4)nc3F)c2c1 [Compound P-3043, [2-Fluoro-6-(6-methyl-pyridin-3-ylamino)-pyridin-3-yl]-(5-methyl-1H-pyrrolo[2,3-b]pyridin-3-yl)-methanone]	< 1 µM	> 10 µM	> 10 µM
CCOc1ncnc2[nH]cc(Cc3ccc(Nc4ccc(C)nc4)nc3F)c12 [Compound P-4017, [5-(4-Ethoxy-7H-pyrrolo[2,3-d]pyrimidin-5-ylmethyl)-6-fluoro-pyridin-2-yl]-(6-methyl-pyridin-3-yl)-amine]	< 1 µM	> 10 µM	> 10 µM
CCOc1ncnc2[nH]cc(Cc3ccc(Nc4ccc(OC)nc4)nc3F)c12 [Compound P-4018, [5-(4-Ethoxy-7H-pyrrolo[2,3-d]pyrimidin-5-ylmethyl)-6-fluoro-pyridin-2-yl]-(6-methoxy-pyridin-3-yl)-amine]	< 1 µM	> 10 µM	< 5 µM
CCOc1ncnc2[nH]cc(Cc3ccc(Nc4cnn(CC)c4)nc3F)c12 [Compound P-4012, [5-(4-Ethoxy-7H-pyrrolo[2,3-d]pyrimidin-5-ylmethyl)-6-fluoro-pyridin-2-yl]-(1-ethyl-1H-pyrazol-4-yl)-amine]	< 1 µM	> 10 µM	> 10 µM
COc1ccc(Nc2ccc(Cc3c[nH]c4ncnc(C)c34)c(F)n2)cn1 [Compound P-4002, [6-Fluoro-5-(4-methyl-7H-pyrrolo[2,3-d]pyrimidin-5-ylmethyl)-pyridin-2-yl]-(6-methoxy-pyridin-3-yl)-amine]	< 1 µM	> 10 µM	> 10 µM
CCc1ccc(Nc2ccc(Cc3c[nH]c4ncnc(OCCOC)c34)c(F)n2)cn1 [Compound P-4016, (6-Ethyl-pyridin-3-yl)-{6-fluoro-5-[4-(2-methoxy-ethoxy)-7H-pyrrolo[2,3-d]pyrimidin-5-ylmethyl]-pyridin-2-yl}-amine]	< 0.1 µM	> 10 µM	> 10 µM
COc1ccc(Nc2ccc(Cc3c[nH]c4ncnc(OC)c34)c(F)n2)cn1 [Compound P-4001, [6-Fluoro-5-(4-methoxy-7H-pyrrolo[2,3-d]pyrimidin-5-ylmethyl)-pyridin-2-yl]-(6-methoxy-pyridin-3-yl)-amine]	< 1 µM	> 10 µM	< 5 µM
COc1ncnc2[nH]cc(Cc3ccc(Nc4ccc(Cl)nc4)nc3F)c12 [Compound P-4003, (6-Chloro-pyridin-3-yl)-[6-fluoro-5-(4-methoxy-7H-pyrrolo[2,3-d]pyrimidin-5-ylmethyl)-pyridin-2-yl]-amine]	> 1 µM	> 10 µM	> 10 µM
CCn1cc(Nc2ccc(Cc3c[nH]c4ncnc(OCCOC)c34)c(F)n2)cn1 [Compound P-4014, (1-Ethyl-1H-pyrazol-4-yl)-{6-fluoro-5-[4-(2-methoxy-ethoxy)-7H-pyrrolo[2,3-d]pyrimidin-5-ylmethyl]-pyridin-2-yl}-amine]	> 1 µM	> 10 µM	> 10 µM
Cc1cnc2[nH]cc(C(=O)c3ccc(Nc4ccc(C5CC5)nc4)nc3F)c2c1 [Compound P-3051, [6-(6-Cyclopropyl-pyridin-3-ylamino)-2-fluoro-pyridin-3-yl]-(5-methyl-1H-pyrrolo[2,3-b]pyridin-3-yl)-methanone]	< 1 µM	> 10 µM	> 10 µM
CCc1ccc(Nc2ccc(C(=O)c3c[nH]c4ncc(C)cc34)c(F)n2)cn1 [Compound P-3049, [6-(6-Ethyl-pyridin-3-ylamino)-2-fluoro-pyridin-3-yl]-(5-methyl-1H-pyrrolo[2,3-b]pyridin-3-yl)-methanone]	< 0.1 µM	> 10 µM	> 10 µM
FC1(F)CCC(Nc2ncc(Cc3c[nH]c4ncc(Cl)cc34)cn2)CC1 [Compound P-3004]	> 1 µM	> 10 µM	5 to 10 µM

Continued, values first:

IC50 (BCR-KIT BaF3 cells)	IC50 (CYP1A2)	IC50 (CYP2C19)	Structure (SMILES)
< 1 µM	> 10 µM	> 10 µM	CCOc1ccc(Nc2ccc(C(=O)c3c[nH]c4ncnc(OC)c34)c(F)n2)cn1 [Compound P-4024, [6-(6-Ethoxy-pyridin-3-ylamino)-2-fluoro-pyridin-3-yl]-(4-methoxy-7H-pyrrolo[2,3-d]pyrimidin-5-yl)-methanone]
< 1 µM	> 10 µM	> 10 µM	Fc1nc(NC2CCC(F)(F)CC2)ccc1Cc1c[nH]c2ncnc(NCC(F)(F)F)c12 [Compound P-4128, 5-[[6-[(4,4-difluorocyclohexyl)amino]-2-fluoro-3-pyridyl]methyl]-N-(2,2,2-trifluoroethyl)-7H-pyrrolo[2,3-d]pyrimidin-4-amine]
< 1 µM	> 10 µM	5 to 10 µM	CCc1ccc(Nc2ccc(Cc3c[nH]c4ncnc(C5CC5)c34)c(F)n2)cn1 [Compound P-4028, [5-(4-Cyclopropyl-7H-pyrrolo[2,3-d]pyrimidin-5-ylmethyl)-6-fluoro-pyridin-2-yl]-(6-ethyl-pyridin-3-yl)-amine]
< 1 µM	> 10 µM	> 10 µM	Fc1nc(NC2CCC(F)(F)CC2)ccc1Cc1c[nH]c2ncnc(NC3CC3)c12 [Compound P-4129, N-cyclopropyl-5-[[6-[(4,4-difluorocyclohexyl)amino]-2-fluoro-3-pyridyl]methyl]-7H-pyrrolo[2,3-d]pyrimidin-4-amine]
> 1 µM	> 10 µM	5 to 10 µM	CCOc1ncnc2[nH]cc(C(=O)c3ccc(Nc4ccc(OC)nc4)nc3F)c12 [Compound P-4025, (4-Ethoxy-7H-pyrrolo[2,3-d]pyrimidin-5-yl)-[2-fluoro-6-(6-methoxy-pyridin-3-ylamino)-pyridin-3-yl]-methanone]
< 1 µM	> 10 µM	5 to 10 µM	Cc1ccc(Nc2ccc(Cc3c[nH]c4ncnc(C5CC5)c34)c(F)n2)cn1 [Compound P-4030, [5-(4-Cyclopropyl-7H-pyrrolo[2,3-d]pyrimidin-5-ylmethyl)-6-fluoro-pyridin-2-yl]-(6-methyl-pyridin-3-yl)-amine]
< 1 µM	> 10 µM	< 5 µM	COc1ccc(Nc2ccc(Cc3c[nH]c4ncnc(C5CC5)c34)c(F)n2)cn1 [Compound P-4023, [5-(4-cyclopropyl-7H-pyrrolo[2,3-d]pyrimidin-5-ylmethyl)-6-fluoro-pyridin-2-yl]-(6-methoxy-pyridin-3-yl)-amine]
